Molecular target: T1, CFTR ΔF508 mutant (Homo sapiens, UniProt P13569, DEL508-508)
T1 construct: expressed in transfected cells; host or cells: CFBE41o- cells transduced with adenoviral vectors
Assay: YFP-halide influx assay for the CFTR-ΔF508 mutation
Type: cell-based
Conditions: CFBE41o- cells expressing CFTR ΔF508 and YFP reporter, forskolin 10.67 μM; for EC50: (1-F/F0) vs concentration
From the text: The YFP halide influx assay measured the functionality of the cystic fibrosis Transmembrane Conductance regulator (CFTR) channels in the cystic fibrosis bronchial epithelium cell line CFBE41o-. The assay was used to evaluate the capacity of compounds to increase the open probability of existing CFTR channels in the membrane. It makes use of the observation that the yellow fluorescent protein (YFP) variant YFP H148Q, I152L, F47L has its fluorescence substantially quenched by halide ions like Cl^− and I^− (Galietta, L. J. V., Haggie, P. M., Verkman, A. S., 2001. Green fluorescent protein-based halide indicators with improved chloride and iodide affinities. FEBS Lett. 499, 220-224. doi:10.1016/S0014-5793(01)02561-3; Nagai, T., Ibata, K., Park, E. S., Kubota, M., Mikoshiba, K., Miyawaki, A., 2002. A variant of yellow fluorescent protein with fast and efficient maturation for cell-biological applications. Nat. Biotechnol. 20, 87-90. doi:10.1038/nbt0102-87).
For this purpose, CFBE410-cells were seeded in 384 well plates (3000 CFBE cells/well). One day after seeding, the CFBE cells were transduced with adenoviral vectors that direct the expression of the CFTR ΔF508 mutant and of the YFP reporter. Cells were incubated at 27° C., 5% CO2 for 24 hours so as to allow for the proper folding and migration to the membrane of the CFTR channel or treated with a CFTR modulator during 24 hours at 37° C.
The I-induced quenching of fluorescence was recorded on an immediately after injection of iodide for 2 minutes on an FDSS/μCell (Hamamatsu). The capacity of a compound to increase the channel opening was directly correlated with the decrease in fluorescence, and was expressed as (1-(fluorescence after 36 seconds (F)/fluorescence before injection (F0))) and an EC50 was derived from a (1-F/F0) vs compound concentration plot.

T1 sequence (P13569 with tags, fused parts or gaps DEL508-508): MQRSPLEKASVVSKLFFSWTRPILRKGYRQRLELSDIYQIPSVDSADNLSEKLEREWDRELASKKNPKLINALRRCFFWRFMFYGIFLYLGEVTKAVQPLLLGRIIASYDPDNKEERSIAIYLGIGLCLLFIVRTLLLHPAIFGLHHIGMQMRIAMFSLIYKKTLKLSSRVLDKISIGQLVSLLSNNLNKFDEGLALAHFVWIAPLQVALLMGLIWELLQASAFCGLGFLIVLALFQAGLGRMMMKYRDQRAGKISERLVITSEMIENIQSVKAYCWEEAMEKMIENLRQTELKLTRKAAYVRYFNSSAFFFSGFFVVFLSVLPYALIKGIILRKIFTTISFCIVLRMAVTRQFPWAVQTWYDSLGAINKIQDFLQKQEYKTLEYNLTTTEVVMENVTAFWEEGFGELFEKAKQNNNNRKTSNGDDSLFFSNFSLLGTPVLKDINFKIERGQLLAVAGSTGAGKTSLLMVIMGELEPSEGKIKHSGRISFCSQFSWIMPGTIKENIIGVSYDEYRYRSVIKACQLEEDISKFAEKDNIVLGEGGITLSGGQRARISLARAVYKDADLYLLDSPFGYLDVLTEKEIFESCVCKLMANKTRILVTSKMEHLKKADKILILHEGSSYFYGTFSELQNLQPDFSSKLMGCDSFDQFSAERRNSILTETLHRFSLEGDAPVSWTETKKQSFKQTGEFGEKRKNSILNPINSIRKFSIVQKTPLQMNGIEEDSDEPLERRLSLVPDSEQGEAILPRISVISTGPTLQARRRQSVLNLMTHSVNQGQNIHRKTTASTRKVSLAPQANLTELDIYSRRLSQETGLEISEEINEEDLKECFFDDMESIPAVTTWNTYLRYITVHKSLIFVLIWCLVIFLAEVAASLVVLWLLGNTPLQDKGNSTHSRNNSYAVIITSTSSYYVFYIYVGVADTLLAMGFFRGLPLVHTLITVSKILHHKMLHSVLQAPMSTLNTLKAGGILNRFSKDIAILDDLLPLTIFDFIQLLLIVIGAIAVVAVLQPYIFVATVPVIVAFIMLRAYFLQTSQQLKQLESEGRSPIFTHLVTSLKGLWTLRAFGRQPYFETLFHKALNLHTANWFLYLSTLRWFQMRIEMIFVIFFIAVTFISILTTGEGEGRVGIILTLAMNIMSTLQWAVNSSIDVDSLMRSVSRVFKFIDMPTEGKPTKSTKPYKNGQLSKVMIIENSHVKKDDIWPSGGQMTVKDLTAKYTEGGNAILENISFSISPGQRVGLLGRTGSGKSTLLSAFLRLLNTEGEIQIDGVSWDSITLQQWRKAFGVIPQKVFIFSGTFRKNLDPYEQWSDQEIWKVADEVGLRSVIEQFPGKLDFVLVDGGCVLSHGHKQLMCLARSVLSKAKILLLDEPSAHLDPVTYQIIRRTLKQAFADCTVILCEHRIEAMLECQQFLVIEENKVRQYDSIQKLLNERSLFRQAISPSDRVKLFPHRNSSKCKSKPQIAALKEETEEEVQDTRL

Compound	% Activation [%]	EC50 [nM]
Nc1cc(S(=O)(=O)c2ccccc2OC(F)(F)F)cnc1-c1nnc(CO)o1 [Compound 59, (5-{3-amino-5-[2-(trifluoromethoxy)benzene-1-sulfonyl]pyridin-2-yl}-1,3,4-oxadiazol-2-yl)methanol]	106.56	4.25
Nc1cc(S(=O)(=O)c2ccc(OC(F)(F)F)cc2)cnc1-c1nnc(C[C@@H]2CCCO2)o1 [Compound 40, 2-(5-{[(2S)-oxolan-2-yl]methyl}-1,3,4-oxadiazol-2-yl)-5-[4-(trifluoromethoxy)benzene-1-sulfonyl]pyridin-3-amine]	106.65	36.8
CO[C@@H](C)c1nnc(-c2ncc(S(=O)(=O)c3ccc(OC(F)(F)F)cc3)cc2N)s1 [Compound 23, 2-{5-[(1S)-1-methoxyethyl]-1,3,4-thiadiazol-2-yl}-5-[4-(trifluoromethoxy)benzene-1-sulfonyl]pyridin-3-amine]	100.92	37.1
Nc1cc(S(=O)(=O)c2cccc(OC(F)(F)F)c2)cnc1-c1nnc(CO)o1 [Compound 58, (5-{3-amino-5-[3-(trifluoromethoxy)benzene-1-sulfonyl]pyridin-2-yl}-1,3,4-oxadiazol-2-yl)methanol]	104.91	3.51
Nc1cc(S(=O)(=O)c2ccc(C(F)(F)F)cc2)cnc1-c1nnc(CO)o1 [Compound 7, (5-{3-amino-5-[4-(trifluoromethyl)benzene-1-sulfonyl]pyridin-2-yl}-1,3,4-oxadiazol-2-yl)methanol]	109.69	5.8
COCc1nnc(-c2ncc(S(=O)(=O)c3ccc(OC(F)(F)F)cc3)cc2N)s1 [Compound 26, 2-[5-(methoxymethyl)-1,3,4-thiadiazol-2-yl]-5-[4-(trifluoromethoxy)benzene-1-sulfonyl]pyridin-3-amine]	101.69	3.33
Nc1cc(S(=O)(=O)c2ccc(C(F)(F)F)cc2)cnc1-c1nnc(CO)s1 [Compound 62, (5-{3-amino-5-[4-(trifluoromethyl)benzene-1-sulfonyl]pyridin-2-yl}-1,3,4-thiadiazol-2-yl)methanol]	113	< 0.44
Nc1cc(S(=O)(=O)c2ccc(OC(F)(F)F)cc2)cnc1-c1nnc(COC(F)F)o1 [Compound 39, 2-{5-[(difluoromethoxy)methyl]-1,3,4-oxadiazol-2-yl}-5-[4-(trifluoromethoxy)benzene-1-sulfonyl]pyridin-3-amine]	119.45	9.88
Nc1cc(S(=O)(=O)c2ccc(OC(F)(F)F)cc2)cnc1-c1nnc(COC2CCOC2)o1 (stereo not shown) [Compound 16, 2-(5-{[(oxolan-3-yl)oxy]methyl}-1,3,4-oxadiazol-2-yl)-5-[4-(trifluoromethoxy)benzene-1-sulfonyl]pyridin-3-amine]	110.75	78.1
Nc1cc(S(=O)(=O)c2ccc(OC(F)(F)F)cc2)cnc1-c1nnc(COc2cccnc2)s1 [Compound 27, 2-(5-{[(pyridin-3-yl)oxy]methyl}-1,3,4-thiadiazol-2-yl)-5-[4-(trifluoromethoxy)benzene-1-sulfonyl]pyridin-3-amine]	96.45	151
NC(=O)c1nnc(-c2ncc(S(=O)(=O)c3ccc(OC(F)(F)F)cc3)cc2N)o1 [Compound 8, 5-{3-amino-5-[4-(trifluoromethoxy)benzene-1-sulfonyl]pyridin-2-yl}-1,3,4-oxadiazole-2-carboxamide]	93.73	300
CO[C@H](C)c1nnc(-c2ncc(S(=O)(=O)c3ccc(OC(F)(F)F)cc3)cc2N)s1 [Compound 21, 2-{5-[(1R)-1-methoxyethyl]-1,3,4-thiadiazol-2-yl}-5-[4-(trifluoromethoxy)benzene-1-sulfonyl]pyridin-3-amine]	109.42	8.54
CO[C@@H](c1ccccc1)c1nnc(-c2ncc(S(=O)(=O)c3ccc(OC(F)(F)F)cc3)cc2N)s1 [Compound 19, 2-{5-[(S)-methoxy(phenyl)methyl]-1,3,4-thiadiazol-2-yl}-5-[4-(trifluoromethoxy)benzene-1-sulfonyl]pyridin-3-amine]	97.54	350
Nc1c(-c2nnc(CO)o2)ncc(S(=O)(=O)c2ccc(OC(F)(F)F)cc2)c1Br [Compound 66, (5-{3-amino-4-bromo-5-[4-(trifluoromethoxy)benzene-1-sulfonyl]pyridin-2-yl}-1,3,4-oxadiazol-2-yl)methanol]	<1.18	–
Nc1cc(S(=O)(=O)c2ccc(OC(F)(F)F)cc2)cnc1-c1nnc(C[C@H]2CCCO2)s1 [Compound 32, 2-(5-{[(2R)-oxolan-2-yl]methyl}-1,3,4-thiadiazol-2-yl)-5-[4-(trifluoromethoxy)benzene-1-sulfonyl]pyridin-3-amine]	105.02	36.6
CO[C@@H](C)c1nnc(-c2ncc(S(=O)(=O)c3ccc(OC(F)(F)F)cc3)cc2N)o1 [Compound 35, 2-{5-[(1S)-1-methoxyethyl]-1,3,4-oxadiazol-2-yl}-5-[4-(trifluoromethoxy)benzene-1-sulfonyl]pyridin-3-amine]	98.52	20.8
COCCc1noc(-c2ncc(S(=O)(=O)c3ccc(OC(F)(F)F)cc3)cc2N)n1 [Compound 55, 2-[3-(2-methoxyethyl)-1,2,4-oxadiazol-5-yl]-5-[4-(trifluoromethoxy)benzene-1-sulfonyl]pyridin-3-amine]	2.76	> 4990
CCOCc1nnc(-c2ncc(S(=O)(=O)c3ccc(OC(F)(F)F)cc3)cc2N)s1 [Compound 25, 2-[5-(ethoxymethyl)-1,3,4-thiadiazol-2-yl]-5-[4-(trifluoromethoxy)benzene-1-sulfonyl]pyridin-3-amine]	104.42	4.4
Nc1cc(S(=O)(=O)c2ccc(OC(F)(F)F)cc2)cnc1-c1nnc([C@@H](O)c2ccccc2)o1 [Compound 45, (S)-(5-{3-amino-5-[4-(trifluoromethoxy)benzene-1-sulfonyl]pyridin-2-yl}-1,3,4-oxadiazol-2-yl)(phenyl)methanol]	109.25	1.13
Nc1cc(S(=O)(=O)c2ccc(OC(F)(F)F)cc2)cnc1-c1nc(COc2ccc(F)cc2)no1 [Compound 49, 2-{3-[(4-fluorophenoxy)methyl]-1,2,4-oxadiazol-5-yl}-5-[4-(trifluoromethoxy)benzene-1-sulfonyl]pyridin-3-amine]	29.2	> 3320
CC(C)(C)c1noc(-c2ncc(S(=O)(=O)c3ccc(OC(F)(F)F)cc3)cc2N)n1 [Compound 54, 2-(3-tert-butyl-1,2,4-oxadiazol-5-yl)-5-[4-(trifluoromethoxy)benzene-1-sulfonyl]pyridin-3-amine]	12.02	> 4990
COCCOCc1nnc(-c2ncc(S(=O)(=O)c3ccc(OC(F)(F)F)cc3)cc2N)o1 [Compound 33, 2-{5-[(2-methoxyethoxy)methyl]-1,3,4-oxadiazol-2-yl}-5-[4-(trifluoromethoxy)benzene-1-sulfonyl]pyridin-3-amine]	103.5	39.8
Nc1cc(S(=O)(=O)c2ccc(OC(F)(F)F)cc2)cnc1-c1nc(C2CCOCC2)no1 [Compound 48, 2-[3-(oxan-4-yl)-1,2,4-oxadiazol-5-yl]-5-[4-(trifluoromethoxy)benzene-1-sulfonyl]pyridin-3-amine]	6.28	> 4990
Nc1c(-c2nnc(CO)o2)ncc(S(=O)(=O)c2ccc(OC(F)(F)F)cc2)c1Cl [Compound 57, (5-{3-amino-4-chloro-5-[4-(trifluoromethoxy)benzene-1-sulfonyl]pyridin-2-yl}-1,3,4-oxadiazol-2-yl)methanol]	93.64	2.41
Nc1cc(S(=O)(=O)c2ccc(F)cc2)cnc1-c1nnc(CO)o1 [Compound 9, {5-[3-amino-5-(4-fluorobenzene-1-sulfonyl)pyridin-2-yl]-1,3,4-oxadiazol-2-yl}methanol]	104.65	96.7
